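Growth conditions: 96-well plates. Treatment: test compound, 48 hours, 5 concentrations. Analysis: linear interpolation between bracketing concentrations; unreached endpoints set to highest concentration. GI50 = concentration required for 50% inhibition of growth.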 The source made the active and inactive calls. Cut-off read from the data, not from the text of the source: active = GI50 up to about 1.1 µM and inactive = higher.
Columns and labels:
Experiment in all cases: NCI-60 cell line screen, 48 h
786-0 = system: 786-0
A498 = system: A498
A549 = system: A549
ACHN = system: ACHN
BT-549 = system: BT-549
CAKI-1 = system: CAKI-1
CCRF-CEM = system: CCRF-CEM
COLO 205 = system: COLO 205
DU-145 = system: DU-145
EKVX = system: EKVX
HCC 2998 = system: HCC 2998
HCT-116 = system: HCT-116
HCT-15 = system: HCT-15
HL-60 = system: HL-60
HOP-92 = system: HOP-92
HT-29 = system: HT-29
Hs-578T = system: Hs-578T
IGROV-1 = system: IGROV-1
K562 = system: K562
KM12 = system: KM12
LOX IMVI = system: LOX IMVI
M14 = system: M14
MCF7 = system: MCF7
MDA-MB-231 = system: MDA-MB-231
MDA-MB-435 = system: MDA-MB-435
MDA-N = system: MDA-N
MOLT-4 = system: MOLT-4
Malme-3M = system: Malme-3M
NCI-H226 = system: NCI-H226
NCI-H23 = system: NCI-H23
NCI-H460 = system: NCI-H460
NCI-H522 = system: NCI-H522
NCI/ADR-RES = system: NCI/ADR-RES
OVCAR-3 = system: OVCAR-3
OVCAR-4 = system: OVCAR-4
OVCAR-5 = system: OVCAR-5
OVCAR-8 = system: OVCAR-8
PC-3 = system: PC-3
RPMI-8226 = system: RPMI-8226
RXF 393 = system: RXF 393
SF-268 = system: SF-268
SF-295 = system: SF-295
SF-539 = system: SF-539
SK-MEL-28 = system: SK-MEL-28
SK-MEL-2 = system: SK-MEL-2
SK-MEL-5 = system: SK-MEL-5
SK-OV-3 = system: SK-OV-3
SN12C = system: SN12C
SNB-19 = system: SNB-19
SNB-75 = system: SNB-75
SR = system: SR
SW-620 = system: SW-620
T47D = system: T47D
TK-10 = system: TK-10
U-251 = system: U-251
UACC-257 = system: UACC-257
UACC-62 = system: UACC-62
UO-31 = system: UO-31

Question: What does the source list for `[O-][S+]1SC(=S)C2C=CC=CC21` (stereo not drawn)?
Answer: GI50 (786-0): > 100 µM (inactive); GI50 (A498): 93.1 µM (inactive); GI50 (A549): 38.2 µM (inactive); GI50 (ACHN): > 100 µM (inactive); GI50 (BT-549): > 100 µM (inactive); GI50 (CAKI-1): > 100 µM (inactive); GI50 (CCRF-CEM): 2.37 µM (inactive); GI50 (COLO 205): > 100 µM (inactive); GI50 (DU-145): > 100 µM (inactive); GI50 (EKVX): 57.5 µM (inactive); GI50 (HCC 2998): > 100 µM (inactive); GI50 (HCT-116): 85.5 µM (inactive); GI50 (HCT-15): 40.9 µM; GI50 (HL-60): 1.62 µM (inactive); GI50 (HOP-92): > 100 µM (inactive); GI50 (HT-29): 45.3 µM (inactive); GI50 (Hs-578T): 84.3 µM (inactive); GI50 (IGROV-1): 49.1 µM (inactive); GI50 (K562): > 100 µM (inactive); GI50 (KM12): > 100 µM (inactive); GI50 (LOX IMVI): 34.7 µM (inactive); GI50 (M14): 23.2 µM (inactive); GI50 (MCF7): 76.9 µM (inactive); GI50 (MDA-MB-231): > 100 µM (inactive); GI50 (MDA-MB-435): 80 µM (inactive); GI50 (MDA-N): 40.8 µM (inactive); GI50 (MOLT-4): > 100 µM (inactive); GI50 (Malme-3M): 95.9 µM (inactive); GI50 (NCI-H226): 59.6 µM (inactive); GI50 (NCI-H23): > 100 µM (inactive); GI50 (NCI-H460): 34 µM (inactive); GI50 (NCI-H522): 76.2 µM (inactive); GI50 (NCI/ADR-RES): > 100 µM (inactive); GI50 (OVCAR-3): > 100 µM (inactive); GI50 (OVCAR-4): > 100 µM (inactive); GI50 (OVCAR-5): > 100 µM (inactive); GI50 (OVCAR-8): > 100 µM (inactive); GI50 (PC-3): > 100 µM (inactive); GI50 (RPMI-8226): 92.9 µM (inactive); GI50 (RXF 393): > 100 µM (inactive); GI50 (SF-268): > 100 µM (inactive); GI50 (SF-295): 88.9 µM (inactive); GI50 (SF-539): > 100 µM (inactive); GI50 (SK-MEL-28): > 100 µM (inactive); GI50 (SK-MEL-2): > 100 µM (inactive); GI50 (SK-MEL-5): 29.4 µM (inactive); GI50 (SK-OV-3): > 100 µM (inactive); GI50 (SN12C): > 100 µM (inactive); GI50 (SNB-19): 48.4 µM (inactive); GI50 (SNB-75): 74 µM (inactive); GI50 (SR): > 100 µM (inactive); GI50 (SW-620): > 100 µM (inactive); GI50 (T47D): > 100 µM (inactive); GI50 (TK-10): > 100 µM (inactive); GI50 (U-251): > 100 µM (inactive); GI50 (UACC-257): 75.5 µM (inactive); GI50 (UACC-62): 58.5 µM (inactive); GI50 (UO-31): 36.8 µM (inactive)
